Results from the supplement of paper PMC11061612.

Key:
Experiment in all cases: Bliss excess, mean over the matrix (fraction); higher = more synergy
[1] = system: BT-474 (Breast Carcinoma)
Method in brief: (§1)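 Cell lines in DMEM/F12 or RPMI with 10% FBS were plated in 1536-well plates, held 24 hours at 37°C, 5% CO2, then given two-drug dose matrices for 72 hours (DMSO typically 0.2%). Viability was read by CellTiter-Glo 2.0 luminescence and scaled as inhibition from 0 (vehicle wells) to 1 (blank wells). Combination Emax is the second-highest inhibition in the matrix; Bliss excess is observed combination effect minus expected EA + EB − EA·EB, EA and EB being single-agent effects.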

[2] = system: CAL-85-1 (Breast Carcinoma)
Method in brief: as §1

[3] = system: Daudi (Burkitt's Lymphoma)
Method in brief: as §1

GCIY (Gastric Carcinoma) = system: GCIY (Gastric Carcinoma)
Method in brief: as §1

[4] = system: HT-1197 (Bladder Carcinoma)
Method in brief: as §1

[5] = system: HT-3 (Cervical Carcinoma)
Method in brief: as §1

[6] = system: IGROV-1 (Ovarian Carcinoma)
Method in brief: as §1

[7] = system: KNS-62 (Squamous Cell Lung Carcinoma)
Method in brief: as §1

[8] = system: L-363 (Plasma Cell Myeloma)
Method in brief: as §1

[9] = system: MRK-nu-1 (Breast Carcinoma)
Method in brief: as §1

[10] = system: NCI-H1048 (Small Cell Lung Carcinoma)
Method in brief: as §1

[11] = system: NCI-H2170 (Squamous Cell Lung Carcinoma)
Method in brief: as §1

NCI-H2452 (Mesothelioma) = system: NCI-H2452 (Mesothelioma)
Method in brief: as §1

[12] = system: NTERA-2-cl-D1 (Other Solid Carcinomas)
Method in brief: as §1

[13] = system: RPMI-8402 (T-Lymphoblastic Leukemia)
Method in brief: as §1

[14] = system: SCC90 (Head and Neck Carcinoma)
Method in brief: as §1

SK-MEL-24 (Melanoma) = system: SK-MEL-24 (Melanoma)
Method in brief: as §1

SK-N-DZ (Neuroblastoma) = system: SK-N-DZ (Neuroblastoma)
Method in brief: as §1

[15] = system: SUP-HD1 (Hodgkin's Lymphoma)
Method in brief: as §1

[16] = system: TK (B-Cell Non-Hodgkin's Lymphoma)
Method in brief: as §1

SMILES	Bliss excess [1]	Bliss excess [2]	Bliss excess [3]	Bliss excess (GCIY (Gastric Carcinoma))	Bliss excess [4]	Bliss excess [5]	Bliss excess [6]	Bliss excess [7]	Bliss excess [8]	Bliss excess [9]	Bliss excess [10]	Bliss excess [11]	Bliss excess (NCI-H2452 (Mesothelioma))	Bliss excess [12]	Bliss excess [13]	Bliss excess [14]	Bliss excess (SK-MEL-24 (Melanoma))	Bliss excess (SK-N-DZ (Neuroblastoma))	Bliss excess [15]	Bliss excess [16]
CN(CCO)CC[C@H](CSc1ccccc1)Nc1ccc(S(=O)(=O)NC(=O)c2ccc(N3CCC([C@@H](O)c4ccccc4-c4ccc(Cl)cc4)CC3)cc2)cc1S(=O)(=O)C(F)(F)F [AZD4320] + Cc1cc2ncnn2cc1Nc1ncc2c(n1)n(C1CCOCC1)c(=O)n2C [AZD7648] (first compound max 1 µM, 7x7, partner max 10 µM)	-0.0628	-0.0118	-0.0115	-0.0452	-0.0497	-0.0403	0.0266	-0.0628	0.0181	0.0501	0.0256	-0.006	-0.011	0.0408	0.0194	0.0682	-0.0429	-0.0362	0.0039	-0.0018
CN(CCO)CC[C@H](CSc1ccccc1)Nc1ccc(S(=O)(=O)NC(=O)c2ccc(N3CCC([C@@H](O)c4ccccc4-c4ccc(Cl)cc4)CC3)cc2)cc1S(=O)(=O)C(F)(F)F [AZD4320] + C[C@@H]1COCCN1C2=NC(=NC(=C2)C3(CC3)[S@](=N)(=O)C)C4=C5C=CNC5=NC=C4 [AZD6738] (first compound max 1 µM, 7x7, partner max 10 µM)	-0.0901	-0.0048	-0.0403	0.0264	-0.0672	-0.0285	-0.0353	-0.0338	-0.007	0.0039	0.0634	-0.0478	-0.0246	-0.0301	0.031	0.019	-0.0584	-0.0559	-0.0207	0.0338
Cc1cc2ncnn2cc1Nc1ncc2c(n1)n(C1CCOCC1)c(=O)n2C [AZD7648] + CN(C)CCCOc1ccc(-c2ccc3ncc4c(c3c2)n(C2CCOCC2)c(=O)n4C)cn1 [AZD0156] (first compound max 10 µM, 7x7, partner max 1 µM)	0.0241	-0.0542	0.0327	-0.0458	-0.0117	0.0226	-0.0328	-0.0064	0.0303	0.0348	0.0121	0.009	-0.0457	-0.0248	0.0104	0.0055	-0.0325	0.038	-0.0306	-0.0264
C[C@@H](c1ccc2nccn2c1)n1nnc2ncc(-c3cnn(C)c3)nc21 [Savolitinib] + Cc1c2c(nn1C)CSCc1cc(n(C)n1)CSc1cc(c3ccccc3c1)OCCCc1c(C(=O)O)n(C)c3c-2c(Cl)ccc13 [AZD5991] (first compound max 1 µM, 7x7, partner max 1 µM)	-0.0595	-0.0286	-0.0126	-0.0423	-0.0356	-0.0255	-0.0303	-0.0471	-0.0203	0.0344	0.0012	-0.0199	-0.109	-0.015	-0.132	-0.0222	-0.0519	0.002	-0.05	-0.0262
Cc1cc2ncnn2cc1Nc1ncc2c(n1)n(C1CCOCC1)c(=O)n2C [AZD7648] + CCN(CCO)CCCOc1ccc2c(Nc3cc(CC(=O)Nc4cccc(F)c4)[nH]n3)ncnc2c1 [AZD2811] (first compound max 10 µM, 7x7, partner max 1 µM)	-0.0214	-0.0195	0.0652	0.0949	-0.0131	0.0276	-0.115	0.0489	0.0321	0.0245	-0.0197	0.0187	0.001	0.012	-0.0443	0.0511	-0.0121	0.088	0.0506	0.0132
Cc1nc(Nc2ncc(C(=O)Nc3c(C)cccc3Cl)s2)cc(N2CCN(CCO)CC2)n1 [Dasatinib] + CC(=O)Nc1cccc(-n2c(=O)n(C3CC3)c(=O)c3c(Nc4ccc(I)cc4F)n(C)c(=O)c(C)c32)c1 [Trametinib] (first compound max 2 µM, 7x7, partner max 1 µM)	-0.0493	0.0959	-0.0221	0.052	-0.0524	-0.0594	-0.0554	-0.0815	-0.0221	-0.0688	-0.0669	-0.0593	-0.0671	0.0638	0.0053	-0.165	0.141	-0.0332	-0.0782	-0.0386
Cc1cc2ncnn2cc1Nc1ncc2c(n1)n(C1CCOCC1)c(=O)n2C [AZD7648] + C=CCn1c(=O)c2cnc(Nc3ccc(N4CCN(C)CC4)cc3)nc2n1-c1cccc(C(C)(C)O)n1 [AZD1775] (first compound max 10 µM, partner max 1 µM)	0.0103	-0.0292	-0.0101	-0.028	-0.0553	0.0055	-0.0431	0.0584	0.0185	0.0279	-0.0505	-0.0972	0.0647	-0.0791	-0.0213	0.0276	-0.015	0.0207	-0.0943	-0.0568
Cc1cc2ncnn2cc1Nc1ncc2c(n1)n(C1CCOCC1)c(=O)n2C [AZD7648] + C[C@@H]1COCCN1C2=NC(=NC(=C2)C3(CC3)[S@](=N)(=O)C)C4=C5C=CNC5=NC=C4 [AZD6738] (first compound max 10 µM, 7x7, partner max 10 µM)	0.0245	0.0307	0.0285	0.0524	-0.0226	0.0076	-0.08	0.0778	0.0096	0.0054	0.0425	-0.0153	0.0084	0.0533	0.0216	0.0385	0.0523	-0.018	-0.0375	-0.0185
